Assays:
Assay type in all cases: cell-based
human TRESK (hTRESK) [1] = target: T1, human TRESK (hTRESK) (Homo sapiens, UniProt Q7Z418); assay: whole-cell patch clamp in transfected HEK293 cells, single concentration […]; details: HEK293, read-out: % inhibition at 20 μM
T1 sequence (Q7Z418 1-384): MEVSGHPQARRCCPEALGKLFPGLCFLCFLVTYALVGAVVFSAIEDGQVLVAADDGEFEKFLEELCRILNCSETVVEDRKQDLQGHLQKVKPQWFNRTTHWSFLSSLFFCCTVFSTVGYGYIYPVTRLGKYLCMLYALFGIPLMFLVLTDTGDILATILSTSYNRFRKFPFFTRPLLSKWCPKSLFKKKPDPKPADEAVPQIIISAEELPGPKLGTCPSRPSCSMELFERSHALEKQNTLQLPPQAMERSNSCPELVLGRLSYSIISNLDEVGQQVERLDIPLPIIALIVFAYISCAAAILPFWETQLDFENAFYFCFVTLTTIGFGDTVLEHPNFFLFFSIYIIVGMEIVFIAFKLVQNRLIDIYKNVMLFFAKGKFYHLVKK

mouse TRAAK (mTRAAK) = target: T2, mouse TRAAK (mTRAAK) (Mus musculus, UniProt O88454); assay: whole-cell patch clamp in transfected HEK293 cells, dose-response
T2 sequence (O88454 1-398): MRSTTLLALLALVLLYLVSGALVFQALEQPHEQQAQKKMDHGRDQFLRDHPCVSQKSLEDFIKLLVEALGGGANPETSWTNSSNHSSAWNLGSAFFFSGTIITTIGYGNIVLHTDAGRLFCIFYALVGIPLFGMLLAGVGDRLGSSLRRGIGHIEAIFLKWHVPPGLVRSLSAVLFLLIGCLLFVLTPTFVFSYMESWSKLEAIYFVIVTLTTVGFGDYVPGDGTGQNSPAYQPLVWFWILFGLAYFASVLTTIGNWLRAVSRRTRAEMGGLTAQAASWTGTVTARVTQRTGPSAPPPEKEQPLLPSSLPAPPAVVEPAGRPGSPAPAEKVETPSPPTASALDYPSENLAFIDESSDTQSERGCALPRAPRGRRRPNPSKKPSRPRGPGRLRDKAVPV

rat TRESK = target: T3, rat TRESK (Rattus norvegicus, UniProt Q6Q1P3); assay: whole-cell patch clamp in transfected HEK293 cells, […]
T3 sequence (Q6Q1P3 1-405): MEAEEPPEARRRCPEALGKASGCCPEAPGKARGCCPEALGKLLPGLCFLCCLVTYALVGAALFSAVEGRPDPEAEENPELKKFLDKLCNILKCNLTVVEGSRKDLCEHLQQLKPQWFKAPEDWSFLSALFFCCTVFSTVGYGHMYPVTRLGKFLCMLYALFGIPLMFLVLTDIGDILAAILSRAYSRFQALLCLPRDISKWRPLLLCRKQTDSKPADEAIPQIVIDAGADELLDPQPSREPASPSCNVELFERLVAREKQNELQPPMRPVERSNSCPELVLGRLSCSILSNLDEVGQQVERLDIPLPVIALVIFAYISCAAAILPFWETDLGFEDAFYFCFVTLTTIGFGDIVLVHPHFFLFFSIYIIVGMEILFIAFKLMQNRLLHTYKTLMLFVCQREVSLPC

human TRESK (hTRESK) [2] = target: T1, human TRESK (hTRESK); assay: whole-cell patch clamp in transfected HEK293 cells, dose-response
human TREK-2 (hTREK-2) = target: T4, human TREK-2 (hTREK-2) (Homo sapiens, UniProt P57789); assay: as above
T4 sequence (P57789 1-538): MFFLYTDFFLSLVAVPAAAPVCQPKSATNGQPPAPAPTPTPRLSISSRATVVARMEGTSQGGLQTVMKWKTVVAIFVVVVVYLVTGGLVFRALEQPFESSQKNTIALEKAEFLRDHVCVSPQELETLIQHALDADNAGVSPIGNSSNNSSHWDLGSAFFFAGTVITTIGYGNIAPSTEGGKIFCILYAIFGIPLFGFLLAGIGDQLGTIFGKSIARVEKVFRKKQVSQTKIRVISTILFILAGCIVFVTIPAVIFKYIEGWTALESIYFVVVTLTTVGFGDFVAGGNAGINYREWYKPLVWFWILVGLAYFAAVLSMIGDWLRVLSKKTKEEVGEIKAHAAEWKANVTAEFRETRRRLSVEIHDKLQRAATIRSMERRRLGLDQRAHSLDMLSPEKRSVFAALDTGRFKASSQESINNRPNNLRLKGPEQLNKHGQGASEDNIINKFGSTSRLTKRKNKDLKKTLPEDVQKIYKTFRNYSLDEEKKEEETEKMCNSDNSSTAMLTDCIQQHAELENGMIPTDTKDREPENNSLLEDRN

mouse TRESK (mTRESK) = target: T5, mouse TRESK (mTRESK) (Mus musculus, UniProt Q6VV64); assay: whole-cell patch clamp dose-response
T5 sequence (Q6VV64 1-394): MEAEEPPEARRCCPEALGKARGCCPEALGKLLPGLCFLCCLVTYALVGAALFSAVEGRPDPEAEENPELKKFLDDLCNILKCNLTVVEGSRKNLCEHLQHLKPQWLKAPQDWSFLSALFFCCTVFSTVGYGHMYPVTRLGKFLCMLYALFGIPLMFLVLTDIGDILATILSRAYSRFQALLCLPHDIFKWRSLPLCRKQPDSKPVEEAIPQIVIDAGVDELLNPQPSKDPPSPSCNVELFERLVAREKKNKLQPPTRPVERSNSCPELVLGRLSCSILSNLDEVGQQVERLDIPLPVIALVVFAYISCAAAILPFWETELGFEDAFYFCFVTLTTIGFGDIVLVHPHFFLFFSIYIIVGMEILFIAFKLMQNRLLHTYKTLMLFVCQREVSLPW

Row | SMILES | inhibition at 20 µM (human TRESK (hTRESK) [1]) | IC50 (mouse TRAAK (mTRAAK)) | whole-cell patch clamp in transfected HEK293 cells, 20 μM (rat TRESK) | IC50 (human TRESK (hTRESK) [2]) | IC50 (human TREK-2 (hTREK-2)) | IC50 (mouse TRESK (mTRESK))
1 | CC1(C)[C@H](C(=O)O[C@H](C#N)c2cccc(Oc3ccccc3)c2)[C@@H]1C=C(Br)Br [DM, deltamethrin] | 30% |  |  |  |  | 
2 | CC1(C)C(C=C(Cl)Cl)C1C(=O)OCc1cccc(Oc2ccccc2)c1 (stereo not shown) [PM, permethrin] | 27% |  |  |  |  | 
3 | CC(C)=CC1C(C(=O)OCN2C(=O)C3=C(CCCC3)C2=O)C1(C)C (stereo not shown) [TM, Tetramethrin] |  | 12.6 µM | TM was also tested on rat and mouse TRESK orthologs, with similar inhibitory effects | 10.7 µM | 75.6 µM | 34.9 µM

Reference: paper PMC5737456 (Pain, 2017)
